According to patent publication US5817828A, “Pyrazole derivatives” (Nissan Chemical Industries, Ltd., priority 1993, dated 1998):

What was measured:
angiotensin II (AngII) = test: Test for Antagonistic Effect against Angiotensin (inhibition of AngII contraction of rabbit thoracic aorta ring); type: cell-based; details: Oryctolagus cuniculus, AngII 10^-8 M, corrected using DMSO, read-out: Percentage of Inhibition of Contraction; for inhibition at 0.1 µM: 1 × 10^-7 M compound; for inhibition at 0.01 µM: 1 × 10^-8 M compound
Description: Test for Antagonistic Effect against Angiotensin:
A rabbit was sacrificed while anesthetized with pentobarbital, and immediately its thoracic aorta was removed. This was cut into a ring specimen, kept at 37° C. and hung in a nutrient liquid (Krebs-Henseleit solution) aerated with a mixed gas comprising 95% oxygen and 5% carbon dioxide, whereupon its isometric contraction was measured. The specimen was equilibrated for one hour, with replacement of the nutrient liquid every 20 minutes, and thereafter angiotensin II (AngII: 10^-8 M) was applied thereto to cause its contraction. To evaluate the effect of the compounds of the present invention, the compound to be tested (10^-7 M or 10^-8 M) was applied as pre-treatment to the specimen in 20 minutes before the fourth application of AngII thereto, the percentage of inhibiting the contraction caused by AngII was obtained on the basis of the third contraction caused by AngII of being 100%. The percentage was corrected, using dimethylsulfoxide (DMSO).

[1] = test system: spontaneous hypertensive male rat; test: Test for Hypotensive Effect (oral, spontaneous hypertensive rat); type: in vivo; details: 30 mg/kg, spontaneous hypertensive male rat (10-week age)
Description: Test for Hypotensive Effect
The compounds of the present invention to be tested were dissolved in a physiological saline solution and was orally administered to a spontaneous hypertensive male rat (10-week age). The blood pressure of the rat was measured, via a pressure transducer through the catheter that had previously been introduced into its aorta from its femoral artery. The variation in the blood pressure was observed from before the application of the compound to 20 hours after the application thereof.

[2] = test system: Angiotensin II (AT2) Receptor; test: Test for Inhibition of Binding to Angiotensin II (AT2) Receptor; details: 10^-6 M compound; 0.1 nM ^125 I-AngII; bovine brain specimen; 37° C., 30 minutes
Description: Test for Inhibition of Binding to Angiotensin II (AT2) Receptor:
The effect of the compounds of the present invention for inhibiting the binding activity of Angiotensin II (AngII) to the bovine brain receptor were tested, according to the method by J. P. Bennett, Jr. et al. [J. Biol. Chem., 251, 7423-7430 (1976)].
10^-6 M of the compound of the present invention to be tested was added to an aqueous solution containing a predetermined amount of a bovine brain specimen and 0.1 nM of ^125 I-AngII and incubated at 37° C. for 30 minutes. The resulting solution was separated through a glass fiber filter to terminate the reaction. The radioactivity bonded to the filter was quantified by a γ-counter.

Row | Percentage of Inhibition [2] [%] | SMILES | inhibition at 0.1 µM (angiotensin II (AngII)) [%] | inhibition at 0.01 µM (angiotensin II (AngII)) [%] | Time after the administration at which the largest percentage of blood pressure depression was obtained [1] [h] | Largest Percentage of Blood Pressure Depression ([1]; observed to 20 hours) [%]
1 | – | CCCN(Cc1ccc(-c2ccccc2-c2nnn[nH]2)cc1)c1nn(CCc2ccccc2)c(Cl)c1C(=O)O [compound 56] | 84 | 51 | – | –
2 | – | CCCN(Cc1ccc(-c2ccccc2-c2nnn[nH]2)cc1)c1nn(CCc2ccccc2)c(C(=O)c2ccccc2)c1C(=O)O [compound 71] | 36 | 14 | – | –
3 | – | CCCN(Cc1ccc(-c2ccccc2-c2nnn[nH]2)cc1)c1nn(CCc2ccccc2)c(-c2ccc(OC)cc2)c1C(=O)O [compound 64] | 92 | 29 | – | –
4 | – | CCCNc1c(C(=O)O)c(N(CCC)Cc2ccc(-c3ccccc3-c3nnn[nH]3)cc2)nn1CCc1ccccc1 [compound 72] | 15 | 7 | – | –
5 | – | CCCN(Cc1ccc(-c2ccccc2-c2nnn[nH]2)cc1)c1nn(CCc2ccccc2)c(-c2cccc(Br)n2)c1C(=O)O [compound 67] | 35 | 13 | – | –
6 | 55.1 | CCCN(Cc1ccc(-c2ccccc2-c2nnn[nH]2)cc1)c1nn(CCc2ccccc2)c(Br)c1C(=O)O [compound 4] | 85 | 40 | 10 | 29.6
7 | – | CCCN(Cc1ccc(-c2ccccc2-c2nnn[nH]2)cc1)c1nn(CCc2ccccc2)c(-c2ccccc2)c1C(=O)O [compound 61] | 77 | 34 | – | –
8 | – | CCCN(Cc1ccc(-c2ccccc2-c2nnn[nH]2)cc1)c1nn(CCc2ccccc2)c(-c2cccs2)c1C(=O)O [compound 68] | 35 | 18 | – | –
